Laboratory results reported in US11136324B2, “Substituted imidazoles as apoptosis signal regulating kinase 1 inhibitors” (Jiangsu Hansoh Pharmaceutical Group Co., Ltd., priority 2017, dated 2021).

What was measured:
ASK1 kinase = ASK1 kinase (Homo sapiens (Human), UniProt Q99683); experiment: ASK1 enzymatic test (TR-FRET); type: biochemical; details: ASK1 kinase activity
Protocol: In this test, the fluorescence-resonance energy transfer (TR-FRET) method was used to determine the inhibition effect of the test compounds on ASK1 kinase activity, and the half maximal inhibitory concentration IC50 of the compounds on ASK1 kinase activity was obtained.
1) 1˜5 μL of ASK1 enzyme solution was added to a 384-well plate, and the final concentration of the enzyme was 0.220 nM.
2) 1˜5 μL of gradient-diluted compound solution was added.
3) 1˜5 μL of a substrate mixture containing substrate polypeptides (final concentration: 100˜5000 nM) and ATP (final concentration: 100˜1000 uM) were added.
4) The mixture was incubated at room temperature for 0.5 to 5 hours.
5) 10 μL of EDTA and test solution containing labeled antibody were added, and the plate was incubated at room temperature for 2 to 24 hours.
6) The fluorescence signal value of each well was determined by a microplate reader at about 615 nm and 665 nm.
7) The inhibition rate was calculated by the fluorescence signal value.
8) The IC50 of the compound was obtained by curve fitting according to the inhibition rate at different concentrations.

[1] = Pharmacokinetic (PK) assay in mice; type: in vivo; details: Balb/c male mice, single intragastric administration, 5 mg/kg, plasma; for AUC(0-t) / AUC(0-inf) / half-life / MRT / Cmax: mouse, po; for AUC(0-t): read-out: Area under curve AUC0-t; for AUC(0-inf): read-out: Area under curve AUC0-∞; for half-life: read-out: Half-life t1/2 (converted); for MRT: read-out: Mean residence time MRT; for Cmax: read-out: Plasma concentration Cmax
Protocol: 2. Pharmacokinetic (PK) Assay in Mice
The pharmacokinetic test of the preferred examples of the present invention in mice was carried out in Balb/c male mice (Shanghai Jiesijie Laboratory Animal Co., LTD).
Administration mode: single intragastric administration.
Administration dosage: 5 mg/10 ml/kg.
Formulation: 0.5% CMC-Na, ultrasonic dissolution.
Sampling points: 0.5, 1, 2, 4, 6, 8 and 24 hours after administration.
1) 0.1 mL of blood was taken from the orbit, placed in a K2EDTA tube, and centrifuged for 5˜20 min at room temperature at 1000˜3000×g to separate the plasma, which was then stored at −80° C.
2) 160 μL of acetonitrile was added to 40 μL of plasma sample for precipitation, and then the mixture was centrifuged for 5˜20 minutes at 500˜2000×g.
3) 100 μL, of processed supernatant was taken and analyzed by LC/MS/MS assay to determine the concentration of the test compound.
LC-MS/MS Assay: • Liquid chromatography condition: Shimadzu LC-20AD pump • Mass spectrometry condition: AB Sciex API 4000 mass spectrometer • Chromatographic column: phenomenex Gemiu 5 μm C18 50×4.6 mm • Mobile phase: solution A was 0.1% aqueous formic acid solution, and solution B was acetonitrile • Flow rate: 0.8 mL/min • Elution time: 0-3.5 minutes gradient elution
The main parameters were calculated using WinNonlin 6.1.

Chain of ASK1 kinase (Q99683 whole entry): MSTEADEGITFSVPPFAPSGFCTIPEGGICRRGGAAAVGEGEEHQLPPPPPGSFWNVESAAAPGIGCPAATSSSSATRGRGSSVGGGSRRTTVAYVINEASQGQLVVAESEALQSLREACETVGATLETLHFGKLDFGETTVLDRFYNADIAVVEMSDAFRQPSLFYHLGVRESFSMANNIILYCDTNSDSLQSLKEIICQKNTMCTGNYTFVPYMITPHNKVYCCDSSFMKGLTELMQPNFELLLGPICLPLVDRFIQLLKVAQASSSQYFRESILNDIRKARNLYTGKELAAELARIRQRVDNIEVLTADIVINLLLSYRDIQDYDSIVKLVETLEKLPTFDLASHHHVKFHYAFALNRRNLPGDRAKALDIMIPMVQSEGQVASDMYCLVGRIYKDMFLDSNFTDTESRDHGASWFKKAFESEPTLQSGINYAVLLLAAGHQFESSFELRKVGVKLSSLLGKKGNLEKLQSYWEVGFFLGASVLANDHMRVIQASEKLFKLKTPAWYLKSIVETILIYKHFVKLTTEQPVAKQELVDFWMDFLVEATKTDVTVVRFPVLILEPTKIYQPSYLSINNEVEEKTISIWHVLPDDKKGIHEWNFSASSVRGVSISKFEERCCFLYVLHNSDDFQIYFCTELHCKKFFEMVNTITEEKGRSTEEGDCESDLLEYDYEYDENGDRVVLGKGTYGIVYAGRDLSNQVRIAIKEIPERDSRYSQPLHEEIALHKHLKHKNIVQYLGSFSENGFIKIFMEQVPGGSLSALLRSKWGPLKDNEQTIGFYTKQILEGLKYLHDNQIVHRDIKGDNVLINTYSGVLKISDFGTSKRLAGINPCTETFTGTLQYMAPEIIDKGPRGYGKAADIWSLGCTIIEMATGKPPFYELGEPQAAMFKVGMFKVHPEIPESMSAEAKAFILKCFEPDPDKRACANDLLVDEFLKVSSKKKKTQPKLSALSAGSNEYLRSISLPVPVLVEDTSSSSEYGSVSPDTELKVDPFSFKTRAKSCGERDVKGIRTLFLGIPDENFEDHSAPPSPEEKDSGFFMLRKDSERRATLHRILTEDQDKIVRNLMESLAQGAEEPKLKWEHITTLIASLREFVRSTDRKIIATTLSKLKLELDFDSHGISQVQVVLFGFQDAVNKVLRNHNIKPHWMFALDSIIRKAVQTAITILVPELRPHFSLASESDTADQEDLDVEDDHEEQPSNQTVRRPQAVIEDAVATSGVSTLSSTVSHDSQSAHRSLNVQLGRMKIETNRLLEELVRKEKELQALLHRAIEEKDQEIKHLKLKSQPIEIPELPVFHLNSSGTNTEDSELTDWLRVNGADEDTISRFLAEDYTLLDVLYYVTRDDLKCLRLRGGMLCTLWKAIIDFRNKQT

SMILES | IC50 (ASK1 kinase) [nM] | Peak time tmax [1] [h] | AUC(0-t) [1] [ng·h/mL] | AUC(0-inf) [1] [ng·h/mL] | half-life [1] [h] | MRT [1] [h] | Cmax [1] [ng/mL]
Cc1cc(Cl)c(C(=O)Nc2cccc(-c3nnc4n3[C@H](C)CC4)n2)cc1-n1cnc(C2CC2)c1 [Example 53, (R)-2-Chloro-5-(4-cyclopropyl-1H-imidazol-1-yl)-4-methyl-N-(6-(5-methyl-6,7-dihydro-5H-pyrrolo[2,1-c][1,2,4]triazol-3-yl)pyridin-2-yl)benzamide] | 8.2 |  |  |  |  |  | 
Cc1cc(F)c(C(=O)Nc2cccc(-c3nnc4n3CCOC4)n2)cc1-n1cnc(C2CC2)c1 [Example 4, 5-(4-Cyclopropyl-1H-imidazol-1-yl)-N-(6-(5,6-dihydro-8H-[1,2,4]triazolo[3,4-c][1,4]oxazin-3-yl)pyridin-2-yl)-2-fluoro-4-methylbenzamide] | 47.8 |  |  |  |  |  | 
Cc1cc(F)c(C(=O)Nc2cccc(-c3nnc4n3CCCC4)n2)cc1-n1cnc(C2CC2)c1 [Example 3, 5-(4-Cyclopropyl-1H-imidazol-1-yl)-2-fluoro-4-methyl-N-(6-(5,6,7,8-tetrahydro-[1,2,4]triazolo[4,3-a]pyridin-3-yl)pyridin-2-yl)benzamide] | 13.4 |  |  |  |  |  | 
Cc1cc(F)c(C(=O)Nc2cccc(-c3nnc4n3C[C@H](C)C4)n2)cc1-n1cnc(C2CC2)c1 [Example 34, (R)-5-(4-Cyclopropyl-1H-imidazol-1-yl)-2-fluoro-4-methyl-N-(6-(6-methyl-6,7-dihydro-5H-pyrrolo[2,1-c][1,2,4]triazol-3-yl)pyridin-2-yl)benzamide] | 5.2 | 1 | 81100 | 81200 | 2.5 | 4.4 | 13500
C=CC1CCc2nnc(-c3cccc(NC(=O)c4cc(-n5cnc(C6CC6)c5)c(C)cc4F)n3)n21 (centres unmarked) [Example 38, 5-(4-Cyclopropyl-1H-imidazol-1-yl)-2-fluoro-4-methyl-N-(6-(5-vinyl-6,7-dihydro-5H-pyrrolo[2,1-c][1,2,4]triazol-3-yl)pyridin-2-yl)benzamide] | 4.1 | 0.5 | 129000 | 130000 | 2.8 | 5.1 | 19400
CCC[C@@H]1CCc2nnc(-c3cccc(NC(=O)c4cc(-n5cnc(C6CC6)c5)c(C)cc4F)n3)n21 [Example 59, (R)-5-(4-Cyclopropyl-1H-imidazol-1-yl)-2-fluoro-4-methyl-N-(6-(5-propyl-6,7-dihydro-5H-pyrrolo[2,1-c][1,2,4]triazol-3-yl)pyridin-2-yl)benzamide] | 2.9 | 1 | 19700 | 20200 | 1.4 | 2.3 | 7590
COC[C@@H]1CCc2nnc(-c3cccc(NC(=O)c4cc(-n5cnc(C6CC6)c5)c(C)cc4F)n3)n21 [Example 11, (S)-5-(4-Cyclopropyl-1H-imidazol-1-yl)-2-fluoro-N-(6-(5-(methoxymethyl)-6,7-dihydro-5H-pyrrolo[2,1-c][1,2,4]triazol-3-yl)pyridin-2-yl)-4-methylbenzamide] | 10.6 | 1 | 29400 | 29400 | 1.1 | 2.1 | 13200
Cc1cc(F)c(C(=O)Nc2cccc(-c3nnc4n3CC(C3CC3)C4)n2)cc1-n1cnc(C2CC2)c1 (centres unmarked) [Example 30, 5-(4-Cyclopropyl-1H-imidazol-1-yl)-N-(6-(6-cyclopropyl-6,7-dihydro-5H-pyrrolo[2,1-c][1,2,4]triazol-3-yl)pyridin-2-yl)-2-fluoro-4-methylbenzamide] | 11.4 |  |  |  |  |  | 
Cc1cc2c(cc1-n1cnc(C3CC3)c1)C(=O)N(c1cccc(-c3nnc4n3CCC4)n1)C2 [Example 63, 6-(4-Cyclopropyl-1H-imidazol-1-yl)-2-(6-(6,7-dihydro-5H-pyrrolo[2,1-c][1,2,4]triazol-3-yl)pyridin-2-yl)-5-methylisoindolin-1-one] | 8.4 |  |  |  |  |  | 
Cc1cc(F)c(C(=O)Nc2cccc(-c3nnc4n3C[C@@H](C)C4)n2)cc1-n1cnc(C2CC2)c1 [Example 35, (S)-5-(4-Cyclopropyl-1H-imidazol-1-yl)-2-fluoro-4-methyl-N-(6-(6-methyl-6,7-di hydro-5H-pyrrolo[2,1-c][1,2,4]triazol-3-yl)pyridin-2-yl)benzamide] |  | 1 | 107000 | 108000 | 3.7 | 5 | 13500
Cc1cc(F)c(C(=O)Nc2cccc(-c3nnc4n3CC3(CC3)C4)n2)cc1-n1cnc(C2CC2)c1 [Example 31, N-(6-(5′H,7′H-Spiro[cyclopropane-1,6′-pyrrolo[2,1-c][1,2,4]triazol]-3′-yl)pyridin-2-yl)-5-(4-cyclopropyl-1H-imidazol-1-yl)-2-fluoro-4-methylbenzamide] | 10.9 |  |  |  |  |  | 
Cc1cc(F)c(C(=O)Nc2cccc(-c3nnc4n3[C@@H](CF)CC4)n2)cc1-n1cnc(C2CC2)c1 [Example 52, (R)-5-(4-Cyclopropyl-1H-imidazol-1-yl)-2-fluoro-N-(6-(5-(fluoromethyl)-6,7-dihydro-5H-pyrrolo[2,1-c][1,2,4]triazol-3-yl)pyridin-2-yl)-4-methylbenzamide] |  | 0.5 | 70500 | 70600 | 3 | 4.7 | 9970
CO[C@H](C)[C@H]1CCc2nnc(-c3cccc(NC(=O)c4cc(-n5cnc(C6CC6)c5)c(C)cc4F)n3)n21 [Example 36, 5-(4-Cyclopropyl-1H-imidazol-1-yl)-2-fluoro-N-(6-((R)-5-((R)-1-methoxyethyl)-6,7-di hydro-5H-pyrrolo[2,1-c][1,2,4]triazol-3-yl)pyridin-2-yl)-4-methylbenzamide] | 9.1 |  |  |  |  |  | 
C#CC1CCc2nnc(-c3cccc(NC(=O)c4cc(-n5cnc(C6CC6)c5)c(C)cc4F)n3)n21 (centres unmarked) [Example 44, 5-(4-Cyclopropyl-1H-imidazol-1-yl)-N-(6-(5-ethynyl-6,7-dihydro-5H-pyrrolo[2,1-c][1,2,4]triazol-3-yl)pyridin-2-yl)-2-fluoro-4-methylbenzamide] | 3.6 |  |  |  |  |  | 
O=C(Nc1cccc(-c2nnc3n2CCC3)c1)c1cc(-n2cnc(C3CC3)c2)ccn1 [Example 7, 4-(4-Cyclopropyl-1H-imidazol-1-yl)-N-(3-(6,7-dihydro-5H-pyrrolo[2,1-c][1,2,4]triazol-3-yl)phenyl)picolinamide] | 19.6 |  |  |  |  |  | 
Cc1cc(F)c(C(=O)Nc2cccc(-c3nnc4n3[C@H](CO)CC4)n2)cc1-n1cnc(C2CC2)c1 [Example 50, (S)-5-(4-Cyclopropyl-1H-imidazol-1-yl)-2-fluoro-N-(6-(5-(hydroxymethyl)-6,7-dihydro-5H-pyrrolo[2,1-c][1,2,4]triazol-3-yl)pyridin-2-yl)-4-methylbenzamide] | 9.6 |  |  |  |  |  | 
Cc1cc(F)c(C(=O)Nc2cccc(-c3nnc4n3CCCCC4)n2)cc1-n1cnc(C2CC2)c1 [Example 2, 5-(4-Cyclopropyl-1H-imidazol-1-yl)-2-fluoro-4-methy 1-N-(6-(6,7,8,9-tetrahydro-5H-[1,2,4]triazolo[4,3-a]azepin-3-yl)pyridin-2-yl)benzamide] | 9.3 |  |  |  |  |  | 
Cc1cc(F)c(C(=O)Nc2cccc(-c3nnc4n3C3(CC4)CC3)n2)cc1-n1cnc(C(C)C)c1 [Example 62, N-(6-(6′,7′-Dihydrospiro[cyclopropane-1,5′-pyrrolo[2,1-c][1,2,4]triazol]-3′-yl)pyridin-2-yl)-2-fluoro-5-(4-isopropyl-1H-imidazol-1-yl)-4-methylbenzamide] | 3 |  |  |  |  |  | 
Cc1cc(F)c(C(=O)Nc2cccc(-c3nnc4n3[C@H](CC#N)CC4)n2)cc1-n1cnc(C2CC2)c1 [Example 48, (S)—N-(6-(5-(Cyanomethyl)-6,7-dihydro-5H-pyrrolo[2,1-c][1,2,4]triazol-3-yl)pyridin-2-yl)-5-(4-cyclopropyl-1H-imidazol-1-yl)-2-fluoro-4-methylbenzamide] | 6.1 |  |  |  |  |  | 
